# Assay results published in US5760032A, “Thienylazole compound and thienotriazolodiazepine compound” (Yoshitomi Pharmaceutical Industries, Ltd., priority 1994, dated 1998).
# Read-outs that look alike come from different tables or passages of the source.
# Legend:
# [1] = molecular target: T1, CCK-A receptor (Pancreas) (Rattus norvegicus, UniProt P30551); experiment: Binding to CCK receptor, pancreas membranes, inhibition of 125I-CCK-8 specific binding
# T1 construct: Whole pancreas was removed from male Wister rats; from tissue; host or cells: rat pancreas membranes (male Wistar rats)
# T1 sequence (P30551 1-444): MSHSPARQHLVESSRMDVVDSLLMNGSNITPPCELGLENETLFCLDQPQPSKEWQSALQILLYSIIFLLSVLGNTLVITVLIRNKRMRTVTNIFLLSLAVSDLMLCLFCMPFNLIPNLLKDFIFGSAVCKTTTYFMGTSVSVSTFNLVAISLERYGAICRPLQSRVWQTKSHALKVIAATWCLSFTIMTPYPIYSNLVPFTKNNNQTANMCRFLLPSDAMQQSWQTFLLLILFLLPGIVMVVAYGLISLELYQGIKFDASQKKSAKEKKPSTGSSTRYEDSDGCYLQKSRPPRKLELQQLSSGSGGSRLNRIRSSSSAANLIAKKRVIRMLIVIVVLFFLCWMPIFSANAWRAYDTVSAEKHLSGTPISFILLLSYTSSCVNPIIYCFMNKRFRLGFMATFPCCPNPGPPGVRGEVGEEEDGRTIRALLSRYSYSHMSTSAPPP
# Experimental: (§1) Whole pancreas was removed from male Wister rats. Fat tissue was removed and the pancreas was homogenized (Blinkman Polytron PT20) in 10 mM MES buffer (0.02% Bacitracin, 0.02% soy bean-derived trypsin inhibitor, 0.0001% phenylmethanesulfonyl fluoride, pH 6.5). The homogenate was passed through a nylon cloth (120 mesh) and the filtrate was centrifuged at 40,000×g for 15 minutes. The obtained sediment was homogenized in Tris buffer and centrifuged in the same manner as above. The sediment was suspended in a buffer for binding assay (50 mM MES containing 130 mM sodium chloride, 4.7 mM potassium chloride, 5 mM magnesium chloride, 0.02% Bacitracin, 0.0001% phenylmethanesulfonyl fluoride, pH 6.5) and used as a peripheral receptor source. In the case of central tissue, rat cerebral cortex was used for the preparation by suspending same in a buffer (pH 6.5) containing 5 mM magnesium chloride, 1 mM EGTA [ethylene glycol bis(2-aminoethylether)tetraacetic acid], 360 mM sodium chloride, 15 mM potassium chloride, 20 mM HEPES (N-2-hydroxyethylpiperazine-N'-2-ethanesulfonic acid) and 0.25 mg/ml Bacitracin. For binding assay, 50 μl buffer (for total binding use) and unlabelled CCK-8 sulfate (for non-specific binding) having a final concentration of 1 μM or a test compound (^125 I-CCK-8, 63-67 TBq/mmol, 40,000-50,000 cpm, 50 μl) were added to a membrane suspension (450 μl, containing 100 μg as protein). The reaction mixture was incubated at 20° C. for 30 minutes and filtered through a glass fiber filter (Whatman G/FB) by suction. Immediately thereafter, the filter was washed three times with ice-cold Tris buffer (2.5 ml) and the radioactivity on the filter was determined.
# (§2) The effects of the test compound on the CCK receptor binding were evaluated by the concentration (IC50, nM) necessary for inhibiting the specific binding by 50%, which was obtained by calculating the inhibition ratio by the following formula: [formula]
# (§3) The results of the effects of the test compounds on the CCK receptor binding are shown in the following
# [2] = molecular target: T2, CCK-B receptor (Brain) (Rattus norvegicus, UniProt P30553); experiment: Binding to CCK receptor, cerebral cortex membranes, inhibition of 125I-CCK-8 specific binding; conditions: pH 6.5, 20° C., 30 minutes
# T2 construct: from tissue; host or cells: rat cerebral cortex membranes
# T2 sequence (P30553 1-452): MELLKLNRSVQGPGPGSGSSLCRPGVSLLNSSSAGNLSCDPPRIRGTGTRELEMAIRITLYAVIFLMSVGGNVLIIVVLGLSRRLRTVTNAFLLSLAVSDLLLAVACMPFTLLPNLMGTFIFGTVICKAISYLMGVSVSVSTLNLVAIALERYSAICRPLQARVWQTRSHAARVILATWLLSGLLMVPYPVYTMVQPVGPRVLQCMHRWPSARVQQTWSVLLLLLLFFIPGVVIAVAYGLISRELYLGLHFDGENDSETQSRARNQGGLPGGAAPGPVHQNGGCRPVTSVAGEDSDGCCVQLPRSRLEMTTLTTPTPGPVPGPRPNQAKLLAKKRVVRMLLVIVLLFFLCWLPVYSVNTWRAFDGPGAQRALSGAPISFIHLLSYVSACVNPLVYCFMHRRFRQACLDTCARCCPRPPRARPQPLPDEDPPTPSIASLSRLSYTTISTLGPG
# Experimental: as §1, §2, §3
# [3] = test system: CCK-8-induced secretion of pancreatic juice (trypsin secretion); experiment: Effects on CCK-induced secretion of pancreatic juice in guinea pig under anesthesia; type: in vivo; conditions: 300 μg/kg intravenous, 5 minutes before second CCK-8 (0.1 μg/kg i.v.); male guinea pigs under urethane anesthesia
# Experimental: Effects on CCK-induced secretion of pancreatic juice in guinea pig under anesthesia
# Male guinea pigs weighing about 650 g were anesthetized by subcutaneous administration of urethane (1.6 g/kg), and a cannula for injection of perfusing solution was inserted into the pyloric part of stomach and a discharge cannula was inserted at a position 2 cm distal from Treitz ligament. Duodenum was perfused with physiological saline at a rate of 8 ml/15 min, and trypsin secretion in the perfusate was determined. For the determination, Na-benzoyl-arginine p-nitroanilide (BAPNA) was used as a synthetic substrate and spectrophotometer was used for the determination. Secretion of pancreatic juice was induced by an intravenous administration of CCK-8 (0.1 μg/kg), and 60 minutes later, CCK-8 was administered again. The inhibition ratio of the test compound which was intravenously administered at 5 minutes before the second administration of CCK-8 was calculated by the following formula: [formula]
# The effects of the test compounds on inhibition of secretion of pancreatic juice induced by CCK receptor in guinea pig under anesthesia are shown in the following
# [4] = rat pancreas membranes, 125I-CCK-8, pH 6.5, 20° C., 30 minutes, read-out: Pancreas (CCK-A) IC50
"IC50 [1, 4] [nM]",IC50 [2] [nM],SMILES,Inhibition of CCK-8-induced secretion of pancreatic juice [3] [%],IC50 [1] [nM]
7.5,> 1000,"CCc1cc(C(=O)c2ccccc2Cl)c(-n2c(C)nnc2CNC(=O)c2ccc(Cl)c(Cl)c2)s1 [Example 11, N-(4-(3-(2-chlorobenzoyl)-5-ethylthiophen-2-yl)-5-methyl[1,2,4]triazol-3-ylmethyl)-3,4-dichlorobenzamide]",–,–
3.7,> 1000,"CCc1cc(C(=O)c2ccccc2Cl)c(-n2c(C)nnc2CNC(=O)c2cc3ccccc3[nH]2)s1 [Example 14, N-(4-(3-(2-chlorobenzoyl)-5-ethylthiophen-2-yl)-5-methyl[1,2,4]triazol-3-ylmethyl)indole-2-carboxamide]",–,–
10.6,> 1000,"CCc1cc(C(=O)c2ccccc2Cl)c(-n2c(C)nnc2CNC(=O)c2cc3ccccc3n2CC(=O)O)s1 [Example 19, 2-(4-(3-(2-chlorobenzoyl)-5-ethylthiophen-2-yl)-5-methyl[1,2,4]triazol-3-ylmethylcarbamoyl)indole-1-acetic acid]",81.9 ± 5.9,–
5.6,> 1000,"CCc1cc(C(=O)c2ccccc2Cl)c(-n2c(C)nnc2CNC(=O)Nc2cccc(C)c2)s1 [Example 26, N-(4-(3-(2-chlorobenzoyl)-5-ethylthiophen-2-yl)-5-methyl[1,2,4]triazol-3-ylmethyl)-N'-(3-methylphenyl)urea]",–,–
4.8,> 1000,"CCc1cc(C(=O)c2ccccc2Cl)c(-n2c(C)nnc2CNC(=O)Nc2cccc(OC)c2)s1 [Example 27, N-(4-(3-(2-chlorobenzoyl)-5-ethylthiophen-2-yl)-5-methyl[1,2,4]triazol-3-ylmethyl)-N'-(3-methoxyphenyl)urea]",–,–
3.2,> 1000,"CCc1cc(C(=O)c2ccccc2Cl)c(-n2c(Br)nnc2CNC(=O)c2cc3ccccc3[nH]2)s1 [Example 72, N-(3-bromo-4-(3-(2-chlorobenzoyl)-5-ethylthiophen-2-yl) [1,2,4]triazol-5-ylmethyl)indole-2-carboxamide]",–,–
6.6,> 1000,"Cc1nnc(CNC(=O)c2cc3ccccc3[nH]2)n1-c1sc(C(=O)O)cc1C(=O)c1ccccc1Cl [Example 252, (3-(2-chlorobenzoyl)-2-(3-(2-indolecarbonylaminomethyl)-5-methyl[1,2,4]triazol-4-yl)thiophen-5-yl)carboxylic acid]",82.6 ± 2.6,–
7.6,> 1000,"CCc1cc(C(=O)c2ccccc2Cl)c(-n2c(C)nnc2CNC(=O)c2ccc(Cl)cc2N)s1 [Example 338, 2-amino-4-chloro-N-(4-(3-(2-chlorobenzoyl)-5-ethylthiophen-2-yl)-5-methyl[1,2,4]triazol-3-ylmethyl)benzamide]",–,–

SMILES,"IC50 [1, 4] [nM]",IC50 [2] [nM],Inhibition of CCK-8-induced secretion of pancreatic juice [3] [%],IC50 [1] [nM]
"CCc1cc2c(s1)-n1c(nnc1CNC(=O)c1ccc(Cl)c(Cl)c1)CN=C2c1ccccc1Cl [Example 59, N-(4-(2-chlorophenyl)-2-ethyl-6H-thieno[3,2-f] [1,2,4]triazolo[4,3-a] [1,4]diazepin-9-ylmethyl)-3,4-dichlorobenzamide]",–,> 1000,–,13
"CCc1cc2c(s1)-n1c(nnc1[C@@H](CCC(=O)O)NC(=O)c1ccc(Cl)c(Cl)c1)CN=C2c1ccccc1Cl [Example 277, (R)-(-)-4-(3,4-dichlorobenzoylamino)-4-(4-(2-chlorophenyl)-2-ethyl-6H-thieno[3,2-f] [1,2,4]triazolo[4,3-a] [1,4]diazepin-9-yl)butanoic acid]",–,> 1000,85.1 ± 12.1,9.6
"CCc1cc2c(s1)-n1c(nnc1[C@@H](CCC(=O)O)NC(=O)c1cc3ccccc3[nH]1)CN=C2c1ccccc1Cl [Example 280, (R)-(-)-4-(4-(2-chlorophenyl)-2-ethyl-6H-thieno[3,2-f] [1,2,4]triazolo[4,3-a] [1,4]diazepin-9-yl)-4-(1H-indole-2-carboxamide)butanoic acid]",–,> 1000,78.1 ± 7.6,2.7
